Key:
[1] = system: HSV-2 (strain MS); experiment: HSV-β-GAL assay (transient expression of beta galactosidase in transfected HeLa cells superinfected with HSV-2); format: cell-based; conditions: HeLa cells transfected with pON 245^ori-, moi=5 pfu/cell, more than one number = additional tests; for IC50: Human alphaherpesvirus 2, HeLa, 24 h, read-out: ANTI-HSV ACTIVITY HSV-β-GAL ASSAY IC50
Description: HeLa and Vero cell cultures were maintained in Eagles Minimal Essential Medium which was supplemented with glutamine, penicillin, streptomycin and 10% fetal calf serum (10% EMEM). Stock cultures of HSV-2 (strain MS available from ATCC VR-540) were grown in and harvested from Vero cells. Viral stocks were titered in Vero cells according to established procedures.
Plasmid pON 245^ori- contains the promoter of the HSV-1 thymidine kinase (tk) gene located immediately 5' of the E. coli lac Z gene. In this arrangement, the tk promoter controls transcription from the bacterial gene in transient expression assays. Additionally, an SV40 polyadenylation signal is present at the 3' end of the lac Z gene to allow for the efficient translation of the mRNA in eucaryotic cells. The expression of beta galactosidase in a transient assay using pON 245^ori- is dependent upon superinfection of the transfected cells with HSV. […] For example, see U.S. application Ser. No. 07/435,491 filed Sep. 5, 1989, the disclosure of which is incorporated herein by reference thereto.
HeLa cells were seeded into 96 well microtiter plates and allowed to grow to 80% confluency (approximately 35000 cells/well). One half microgram of plasmid pON 245^ori- DNA was introduced into the cells of each well by the […] precipitation technique (Grahman and Van der Eb, 1973). Four to six hours later, the cells were rinsed with Hank's Balanced Salt Solution (HBSS), overlaid with 10% EMEM and incubated at 37° C. At 24 hrs post-transfection, cells were rinsed, overlaid with 10% EMEM again and re-incubated at 37° C. At 48 hrs. post-transfection, cells were rinsed and overlaid with either EMEM containing 2% fetal calf serum (2% EMEM), 2% EMEM containing HSV-2 (strain MS, Multiplicity of Infection [moi]=5 pfu/cell) or 2% EMEM containing HSV-2 and the appropriate concentration of the compound to be tested. Twenty-four hrs later, the cells were harvested and assayed for beta galactosidase activity as described below.
All determinations of beta galactosidase activity were performed in 96 well microtiter plates. The intracellar level of beta galactosidase activity in each well was determined from cell lysates of the monolayer cultures. Aliquots were assayed by incubation in the presence of beta galactosidase substrate, 4-methylumbelliferyl-β-D-galactoside (MUG, 125 ug/ml, Sigma), for 2 hrs. The generation of fluorescent product was quantified on a Microfluor microfluorimeter (Dynatech) after addition of 0.1M glycine, pH 10.3 (Spaete and Mocarski, 1985). The inhibitory activity of a compound was plotted versus the concentration and an IC50 value (the concentration of compound required to reduce beta glactosidase expression by 50%) was obtained for each compound tested.

[2] = Cytotoxicity, 3H-LEU assay (inhibition of HeLa cell translation); format: cell-based; conditions: human; HeLa cells, tritiated leucine incorporation after overnight/24 hrs treatment; read-out: CYTOTOXICITY 3H-LEU ASSAY IC50
Description: HeLa cells were treated with inhibitory compound for 24 hrs, after which levels of translational activity were assayed.
For assay of translational activity, HeLa cultures were grown to 80% confluency in 96 well microtiter plates, treated with appropriate concentrations of compound in 2% EMEM during an overnight incubation at 37° C., then rinsed with HBSS and overlaid with […] of 2% EMEM containing 8 uCi of tritiated leucine (^3 H-LEU, 141 Cu/mMol, Amersham Corp., Arlington Heights Ill.). After a 1 hr incubation at 36.5° C., the cells were rinsed twice with phosphate buffered saline (PBS) and lysed in 400 ul/well of 1×PBS, 0.5% sodium dodecyl sulphate (SDS). After a 10 min incubation at 36.5° C., the contents of the well were transferred to a well in a Millititer HA microfiltration plate (Millipore Corp., Bedford, Mass.). The TCA insoluble proteins were precipitated onto the filter disc by a 10 min fixation with 5% TCA, followed by filtration under vacuum and three 10 minute rinse with 95% ethanol. The filters were dried at room temperature, cut from the milltitier plate and transferred to scintillation vials. TCA precipitable counts were assayed in 5 ml of Scintisol (Isolab, Akron, Ohio). The inhibitory activity of a compound was plotted versus the concentration and an IC50 value (that concentration of the compound required to decrease cellular translational activity by 50%) was derived for each compound.

[3] = system: HSV-2, strain MS; experiment: In vivo anti-HSV efficacy, prophylactic guinea pig model of HSV infection; conditions: 60 mg per kg subcutaneously, T.I.D., 10 days, first dose 24 hrs before infection
Description: The in vivo assessment of anti-HSV efficacy was determined in the prophylactic guinea pig model of HSV infection described by Stansberry et al (1982). Dosing of guinea pigs was comprised of an initial treatment with test compound given 24 hrs prior to virus infection and subsequent administration of the compound every eight hours (T.I.D.) for a total of 10 days. Test compounds were administered subcutaneously in 0.5% buffered methyl cellulose at a dose of 60 mg per kg body weight of the animal. Animals were monitored daily for the developement of genital lesions and neurological symptomology, both of which were recorded and compared to the results obtained with parallel groups which received placebo or acyclovir treatment. Efficacy was evaluated for each compound by scoring the ability of the compound to ameliorate genital lesions produced by infection with HSV-2, strain MS, expressed as Maximum Lesion scores (MLS) on a scale of 1 (least lesions) to 4 (severe lesions).

Row | IC50 [1] [µg/mL] | ANTI-HSV ACTIVITY HSV-β-GAL ASSAY IC50 ([1]; 24 hrs) [µg/mL] | SMILES | CC50 at 24 h [2] [µg/mL] | In-vivo anti-HSV activity (genital lesions, Maximum Lesion score) [3]
1 | 7 | – | CN1C(=O)C(=NO)C(=O)c2ccccc21 [Formula 1.02] | 27 | –
2 | 7 | – | O=C1C(=NO)C(=O)N(Cc2ccccc2)c2ccccc21 [Formula 1.03] | 40 | –
3 | < 3 | 2.5 | CCCCCCCN1C(=O)C(=NO)C(=O)c2ccccc21 [Formula 1.04] | 37 | inactive
